The source of these data is US7655225B2, “Methods of expanding stem and progenitor cells and expanded cell populations obtained thereby” (Gamida Cell, Ltd., priority 2002, dated 2010).

Assay [1] has as its system mononuclear cells (MNC). Kind of assay: Colony-forming cells (CFUs) from mixed cells (MNC) culture. In kind it is cell-based, human. To be noted: FIG. 18. On the procedure: Self-renewal potential evaluations: The self-renewal potential of stem cells was determined in vitro by long-term colony formation. Cells were washed and seeded in a semi-solid methylcellulose medium supplemented with 2 IU/ml erythropoietin (Eprex, Cilage AG Int., Switzerland), stem cell factor and IL-3, both at 20 ng/ml (Perpo Tech), and G-CSF and GM-CSF, both at 10 ng/ml (Perpo Tech). The resulting colonies were scored after two weeks of incubation at 37° C. in a humidified atmosphere of 5% CO2 in air. Colonies were classified as blast, mixed, erythroid, myeloid, and megakaryocytic, according to their cellular composition.
Ex vivo expansion of progenitor cells: The non-purified mononuclear cells (MNC), obtained as described hereinabove, were seeded in Culture Bags (American Fluoroseal Corp.), with alpha minimal essential medium supplemented with 10% fetal bovine serum (FBS, Biological Industries), at a concentration of about 10^6 cells/ml. The purified CD34^+ cells were similarly seeded in the Culture Bags, at a concentration of […]. The media were supplemented with TEPA chelator and/or with the following human recombinant cytokines (all obtained from Perpo Tech, Inc., Rocky Hill, N.J.): Thrombopoietin (TPO), 50 ng/ml; interleukin 6 (IL-6), 50 ng/ml; FLT-3 ligand, 50 ng/ml and a stem cell factor (SCF), 50 ng/ml; occasionally SCF was replaced by IL-3, 20 ng/ml. […]

Assay [2] relates to mononuclear cells (MNC). As to the kind of experiment: Ex vivo expansion of stem and progenitor cells in mixed cells culture: cell enumeration and FACS. In kind it is cell-based, human. The settings on record: for cumulative number of CD34+ cells: TEPA first three weeks only, FIGS. 16a-b; for cumulative number of CD34+ cells per culture bag: control 2.56×10^6; for Portion of CD34+ cells (%): control 0.2; for Number of CD34+ cells (×10^4): control 256.0. Here is the method: Sample collection and processing: Samples were obtained from umbilical cord blood after a normal full-term delivery and were frozen within 24 hours pospartum. The blood cells were thawed in Dextran buffer and incubated for […] in MEM (Biological Industries, Israel) supplemented with 10% fetal calf serum (FCS; Biological Industries). The cells were then layered on Ficoll-Hypaque (density 1.077 gram/ml; Sigma) and centrifuged at 400 g for 30 minutes at room temperature. The mononuclear cells in the interface layer were then collected, washed three times in phosphate-buffered saline (PBS; Biological Industries), and re-suspended in PBS containing 0.5% human serum albumin (HSA). The cells were then split into two fractions, the first being the mononuclear cells (MNC) and the second fraction was used for purifying CD34^+ cells by immunomagnetic separation using the “MiniMACS CD34^+ progenitor cell isolation kit” (Miltenyi Biotec, Auburn, Calif.) according to the manufacturer's recommendations. The purity of the CD34^+ cells obtained ranged between 95% and 98%, based on Flow Cytometry evaluation (see below). Ex vivo expansion of progenitor cells: The non-purified mononuclear cells (MNC), obtained as described hereinabove, were seeded in Culture Bags (American Fluoroseal Corp.), with alpha minimal essential medium supplemented with 10% fetal bovine serum (FBS, Biological Industries), at a concentration of about 10^6 cells/ml. The purified CD34^+ cells were similarly seeded in the Culture Bags, at a concentration of […]. The media were supplemented with TEPA chelator and/or with the following human recombinant cytokines (all obtained from Perpo Tech, Inc., Rocky Hill, N.J.): Thrombopoietin (TPO), 50 ng/ml; interleukin 6 (IL-6), 50 ng/ml; FLT-3 ligand, 50 ng/ml and a stem cell factor (SCF), 50 ng/ml; occasionally SCF was replaced by IL-3, 20 ng/ml. For non-hemopoietic differentiation, FGF, EGF, NGF, VEGF, LIF or Hepatocyte growth factor, were used alone or in various combinations. All cultures were incubated at 37° C. in an atmosphere of 5% CO2 in air with extra humidity. At weekly intervals, the cell cultures were semi-depopulated and supplemented with fresh medium containing cytokines. Following different incubation periods, cells were harvested, stained with trypan blue and enumerated. Determining the density of stem and progenitor subset populations following expansion was carried out as described in the experimental procedures section of Example 3 above. Non-purified mononuclear cells (MNC) were seeded in culture bags and were provided with nutrients and cytokines as described above. The MNC cultures were either treated or untreated (untreated controls) with TEPA-chelator. The treated MNC cultures were supplemented with TEPA for only the first three weeks and from week three onward were topped with chelator-free media. The pre-purified CD34^+ cultures were not supplemented with TEPA and served as positive controls. The cultures were analyzed weekly during a 12-week period. Non-purified (mixed cells) mononuclear cells (MNC) were seeded in culture bags and were provided with nutrients and cytokines as described in Example 4 above. The mixed cell cultures were either untreated (control) or treated with Cu-TEPA chelate. The treated MNC cultures were supplemented with Cu-TEPA chelate for only the first three weeks and from week three onward were topped with chelator-free media. All cultures were analyzed […].

Assay [3] relates to mononuclear cells (MNC). As to the kind of experiment: Morphological analysis of cells from long-term MNC cultures. In kind it is cell-based, human. To be noted: untreated: fully differentiated. Here is the method:
Morphological assessment: In order to characterize the resulting culture populations, aliquots of cells were deposited on a glass slide (cytocentrifuge, Shandon, Runcorn, UK), fixed and stained in May-Grunwald and Giemsa stain. Cloning potential evaluation, morphological assessment and surface antigen analyses were carried out as described in the experimental procedures section of Example 1 above.

Assay [4] deals with platelets. Kind of assay: In vivo recovery of platelets after gamma-irradiation. Also noted: species or system mice (BALB/C X C57B1/6/F1). To be noted: single treatment, 30 μM; irradiated mice. On the procedure:
In this experiment, ten mice (BALB/C X C57B1/6/F1) were gamma-irradiated (700 cGy) so as to mimic an irradiation therapy situation that destroys platelets. One day after irradiation five (out of ten) mice were administered with 30 μM of Cu-TEPA, while the other five mice were non-treated. The platelet levels in all mice were enumerated one week after irradiation. […] The results of this experiment illustrate that a copper chelate can effectively enhance the recovery of hematopoietic cells in subjects exposed to irradiation treatment.

Assay [5] relates to CD34+ cells. As to the kind of experiment: Morphological assessment of cultured CD34+ cells. In kind it is cell-based, human. The settings on record: 8-weeks culture; control: mainly differentiated cells; FIGS. 3a-b. From the text:
Morphological assessment: In order to characterize the resulting culture populations, aliquots of cells were deposited on a glass slide (cytocentrifuge, Shandon, Runcorn, UK), fixed and stained in May-Grunwald and Giemsa stain.

The mark [6] stands for this setting: 50 μM, MNC culture, eight weeks after seeding.
[7] abbreviates: 100 μM, MNC culture, eight weeks after seeding.

Regarding `NCCNCCNCCNCCN` [TEPA chelator, tetraethylenepentamine], the “number of CD34+ CFUs” value in assay [1] (after 2 weeks) was “non-detectable”; in assay [1] (after 10 weeks), 3.2×10^7 cells/ml. For the same molecule, the “cumulative number of CD34+CD38− cells” value in assay [2] (MNC culture, after 2 weeks, FIG. 17) is on record as “non-detectable”; in assay [2] (MNC culture, after 12 weeks, FIG. 17), 2.5×10^7 cells/ml. In addition, the “cumulative number of CD34+ cells” value in assay [2] (MNC culture, after 2 weeks) is recorded as “non-detectable”; in assay [2] (MNC culture, after 12 weeks) it was “over 8×10^7 cells/ml”. The “stem and progenitor cells densities vs pre-purified CD34+ cells cultures (not treated with TEPA)” value in assay [2] (TEPA-treated MNC cultures, 12-week period) was “either equalized or surpassed”. Moreover, the “morphological analysis of cells” value in assay [3] is listed as “high proportion of non-differentiated cells”.
As to `NCCNCCNCCNCCN.[Cl-].[Cl-].[Cu+2]` [TEPA-Cu chelate, tetraethylenepentamine-copper chelate], the “cumulative number of CD34+ cells per culture bag” value is 12.37×10^6 in assay [2] (50 μM, MNC culture, 8 weeks) and 32.85×10^6 in assay [2] (100 μM, MNC culture, 8 weeks). Besides, the figures for the “Portion of CD34+ cells (%)” value in assay [2] (setting [6]) and in assay [2] (setting [7]) were 1.4% and 1.2%, respectively. The entries for the “Number of CD34+ cells (×10^4)” value in assay [2] (setting [6]) and in assay [2] (setting [7]) were 1237.3 ×10^4 and 3285.3 ×10^4, respectively. The “cumulative number of CD34+CD38− cells” value in assay [2] (100 μM, MNC culture, 8 weeks, control 2.1×10^5) is reported as 6.1×10^5. In addition, in assay [2] (100 μM, MNC culture, eight weeks after seeding, control 21), the “Nunber of CD34/38− cells (×10^4)” value is recorded as 61 ×10^4. Besides, the “recovery of platelets vs non-treated control” value in assay [4] was “significantly accelerated”. Further, the “morphological analysis of culture” value in assay [5] is recorded as “mainly blast-like cells”.
